We go through 7 molecules from patent EP0302626A2, “Insecticidal compounds” (IMPERIAL CHEMICAL INDUSTRIES PLC, priority 1987, dated 1989).

Usually mortality stands for the share of the test organisms that died.

Holding throughout (assay type): in vivo
Data set [1] relates to Diabrotica balteata (rootworm larvae). Description: insecticidal mortality test, residual, filter paper/maize seed. To be noted: read-out: grading of mortality, DB. As for the experimental part: (§1) The activity of the Product was determined using a variety of insect pests. The Product was used in the form of liquid preparations containing 500, 250 or 100 parts per million (ppm) by weight of the Product. The preparations were made by dissolving the Product in acetone and diluting the solutions with water containing 0.01% by weight of a wetting agent sold under the trade name "LlSSAPOL" NX until the liquid preparations contained the required concentration of the Product. "Lissapol" is a Registered Trade Mark.
(§2) The test procedure adopted with regard to each pest was basically the same and comprised supporting a number of the pests on a medium which was usually a host plant or a foodstuff on which the pests feed, and treating either or both the pests and the medium with the preparations. The mortality of the pests was then assessed at periods usually varying from one to three days after the treatment.
(§3) The results of the tests are given in Table III for each of the Products, at the rate in parts per million given in the second column as a grading of mortality designated as A, B or C wherein A indicates 80-100% mortality, B indicates 50-79% mortality and C indicates less than 50% mortality.
(§4) In Table 111 the pest organism used is designated by a letter code and the pests species, the support medium or food, and the type and duration of test is given in Table II.

Data set [2] relates to Blattella germanica (cockroach nymphs). Description: insecticidal mortality test, residual, plastic pot. To be noted: 72 h, read-out: grading of mortality, BG. As for the experimental part:
as §1, §2, §3, §4

Data set [3] concerns Tetranychus urticae (spider mites - adult). Description: insecticidal mortality test, contact, French bean leaf. Conditions: for mortality at 100 ppm: read-out: grading of mortality, Tua, 100 ppm, 3 days. As for the experimental part: as §1, §2, §3, §4
Data set [4] has as its system Musca domestica (adult females). The data set is described as follows: Musca domestica knockdown test. Conditions: 1 cm3 of 30 ppm solution in acetone, Kearns and March chamber, 20 adult females, observed over 10 minutes; average of 2 replicates (* single replicate, ** average of 7 tests). Here is the method:
1 cm³ Of a 30 ppm solution of the test chemical in acetone was sprayed into a Kearns and March chamber containing 20 Musca domestica (adult females). Knockdown was observed over a period of 10 minutes and KT₅₀ and KT₉₀ values (the time taken for 50% and 90% of the insects to be knocked down) were calculated from the observations. The results given in Table V represent average KT values of 2 replicates except where otherwise stated.

In data set [5] the test system is Nephotettix cincticeps (green leaf hopper - nymphs). The data set is described as follows: insecticidal mortality test, contact, rice plant. To be noted: 100 ppm, contact, rice plant, read-out: grading of mortality, NC. As for the experimental part:
as §1, §2, §3, §4

Data set [6] has as its system Heliothis virescens (tobacco budworm - larvae). Description: insecticidal mortality test, residual, cotton leaf. To be noted: residual, cotton leaf, read-out: grading of mortality, HV. Here is the method:
as §1, §2, §3, §4

Data set [7] has as its system Spodoptera exigua (lesser army worm - larvae). Description: insecticidal mortality test, residual, cotton leaf. Conditions: read-out: grading of mortality, SP. Here is the method:
as §1, §2, §3, §4

Data set [8] relates to Musca domestica (houseflies - adults). Description: insecticidal mortality test, contact, cotton wool/sugar. To be noted: read-out: grading of mortality, MD. As for the experimental part:
as §1, §2, §3, §4

In data set [9] the test system is Myzus persicae (aphids). The data set is described as follows: insecticidal mortality test, contact, Chinese Cabbage leaf. Conditions: 72 h, read-out: grading of mortality, MP. As for the experimental part: as §1, §2, §3, §4
Data set [10] deals with Blattella germanica (adult males). Description: Blattella germanica knockdown test. To be noted: for mortality at 250 ppm / pest or weed control at 250 ppm: Blattella germanica; for mortality at 250 ppm: 48 h; for pest or weed control at 250 ppm: topical, Tetramethrin: mean of 27 observations. As for the experimental part: The test compound was dissolved in acetone (2 cm³) and the solution diluted to a concentration of 250 ppm with kerosene. 1 cm³ Of this preparation was sprayed onto 10 Blattella germanica (adult males) held in a netted plastic pot in a Burkhard potter Tower. Assessment of knockdown was performed at intervals of 5 minutes up to a total of 20 minutes. On removal from the Burkhard Potter Tower, the insects were held at 25°C and 65% relative humidity for 48 hours, and an assessment of mortality performed. Each test was repeated.
In some tests, additional knockdown assessment was performed at intervals of 1, 2, 3 and 4 minutes, and KT₅₀ and KT₉₀ values determined (the time taken, in minutes, to knockdown 50% and 90% respectively of test insects).

[11] abbreviates: 250 ppm spray, insects held at 25°C and 65% relative humidity for 48 hours, tests 1 and 2 are repeats, read-out: % MORTALITY 48 hrs.
[12] abbreviates: 5 min, 250 ppm in kerosene, 1 cm3 sprayed onto 10 adult males, 5 min, tests 1 and 2 are repeats, read-out: % KNOCKDOWN OBSERVED 5 min.
The mark [13] stands for this setting: 48 h, test duration of 2 days (footnote +).
Setting [14] is: 10 min, 250 ppm in kerosene, 1 cm3 sprayed onto 10 adult males, 10 min, tests 1 and 2 are repeats, read-out: % KNOCKDOWN OBSERVED 10 min.
[15] abbreviates: 250 ppm in kerosene, 1 cm3 sprayed onto 10 adult males, tests 1 and 2 are repeats.

Values joined by “and” are separate entries in the source; they are usually repeats but may differ in a detail not shown here. Identical values can stand only once. Like-named read-outs stand apart in the source and are kept apart here. Marks after values point to notes of the source that are not given here.

As to `CC1(C)C(C=C(Cl)C(F)(F)F)C1C(=O)OCc1c(F)c(F)c(CCl)c(F)c1F` (racemic) [Product III, 4-(chloromethyl)-2,3,5,6-tetrafluorobenzyl (1RS,cis)-3-(Z-2-chloro-3,3,3-trifluoroprop-1-en-1-yl)-2,2-dimethylcyclopropanecarboxylate], the mortality at 100 ppm is 80 to 100% in data set [1] (72 h); 80 to 100% in data set [2]; 80 to 100% in [3] (Tetranychus urticae, 72 h); 80 to 100% in data set [5] (72 h, 3 days); 80 to 100% in [6] (72 h, 3 days); 80 to 100% in [7] (72 h). The values for the mortality at 100 ppm in [8] (24 h) and in data set [9] were less than 50% and 80 to 100%, respectively. The KT₅₀ in data set [4] is 10 min. The KT₉₀ in data set [4] amounted to 10 min. Also, the mortality at 250 ppm in data set [10] (setting [11]) was 100%. In addition, the pest or weed control at 250 ppm in [10] (setting [12]) is 100%.
Take `CC1(C)C(C=C(Cl)C(F)(F)F)C1C(=O)OCc1c(F)c(F)c(COC=O)c(F)c1F` (racemic) [Product IX, 4-(Formyloxymethyl)-2,3,5,6-tetrafluoromethyl (1RS, trans)-3-(Z-2-chloro-3,3,3-trifluoroprop-1-en-1-yl)-2,2-dimethylcyclopropanecarboxylate]: the mortality at 100 ppm is less than 50% in [1] (48 h); 80 to 100% in data set [2]; 80 to 100% in [5] (setting [13]); 80 to 100% in data set [6] (setting [13]); 80 to 100% in data set [7] (48 h); less than 50% in [8] (72 h). In addition, the mortality at 100 ppm in [9] lay within 80 to 100%. Further, the “grading of mortality, Tua” value in data set [3] (100 ppm, 3 days, listed as IX, 4320 min) was “C (C indicates less than 50% mortality)”. In addition, the KT₅₀ in [4] is reported as 10* mins. The KT₉₀ in data set [4] was 10* mins. Also, the mortality at 250 ppm in data set [10] (setting [11]) amounted to 100%. Further, in [10] (setting [14]), the pest or weed control at 250 ppm is 100%.
Regarding `CC(=O)OCc1c(F)c(F)c(COC(=O)C2C(C=C(Cl)C(F)(F)F)C2(C)C)c(F)c1F` (racemic) [Product VI, 4-(Acetoxymethyl)-2,3,5,6-tetrafluorobenzyl (1RS,cis)-3-(Z-2-chloro-3,3,3-trifluoroprop-1-en-1-yl)-2,2-dimethylcyclopropanecarboxylate], the mortality at 100 ppm in data set [1] (72 h) fell in the range of 80 to 100%; in data set [2] it was 80 to 100%; in data set [3] (Tetranychus urticae, 72 h), 50 to 79%; in data set [5] (72 h, 3 days) it was 80 to 100%; in [6] (72 h, 3 days), 80 to 100%; in data set [7] (72 h), 80 to 100%. Moreover, the mortality at 100 ppm in data set [8] (24 h) and in [9] was 80 to 100% throughout. Moreover, the KT₅₀ in data set [4] is 7.0 min. The KT₉₀ in data set [4] was 7.7* mins. The “% KNOCKDOWN OBSERVED 15 min” value in [10] (setting [15]) was found to be 70%. Further, the “% KNOCKDOWN OBSERVED 20 min” value in [10] (250 ppm in kerosene, 1 cm3 sprayed onto 10 adult males, 20 min, tests 1 and 2 are repeats) is 100%. Further, the mortality at 250 ppm in [10] (setting [11]) came out at 100%. Besides, in [10] (setting [14]), the pest or weed control at 250 ppm amounted to 30%.
`CC1(C)C(C=C(Cl)C(F)(F)F)C1C(=O)OCc1c(F)c(F)c(CN=[N+]=[N-])c(F)c1F` (racemic) [Product X, 4-(Azidomethyl)-2,3,5,6-tetrafluorobenzyl (1RS, cis)-3-(Z-2-chloro-3,3,3-trifluoroprop-1-en-1-yl)-2,2-dimethylcyclopropanecarboxylate]: the mortality at 100 ppm is 80 to 100% in data set [1] (72 h); 80 to 100% in data set [2]; 80 to 100% in data set [3] (Tetranychus urticae, 72 h); 80 to 100% in data set [5] (72 h, 3 days); 80 to 100% in [6] (72 h, 3 days); 80 to 100% in [7] (72 h). Also, the mortality at 100 ppm in data set [8] (24 h) and in data set [9] was 80 to 100% throughout. Besides, the KT₅₀ in [4] was 5.0* mins. The KT₉₀ in [4] is 9.0* mins. Moreover, in data set [10] (setting [15]), the “% KNOCKDOWN OBSERVED 15 min” value is recorded as 100%. Further, the mortality at 250 ppm in [10] (setting [11]) amounted to 100%. Also, the pest or weed control at 250 ppm in data set [10] (setting [14]) came to 70%.
For `CC1(C)C(C=C(Cl)C(F)(F)F)C1C(=O)OCc1c(F)c(F)c(CC#N)c(F)c1F` (racemic) [Product XII, 4-(Cyanomethyl)-2,3,5,6-tetrafluorobenzyl (1RS, cis)-3-(Z-2-chloro-3,3,3-trifluoroprop-1-en-1-yl)-2,2-dimethylcyclopropanecarboxylate], the mortality at 100 ppm in [1] (72 h) was in the range of 80 to 100%; in data set [2], 80 to 100%; in data set [3] (Tetranychus urticae, 72 h) it was 80 to 100%; in data set [5] (72 h, 3 days), 80 to 100%; in data set [6] (72 h, 3 days), 80 to 100%; in data set [7] (72 h) it was 80 to 100%. For the same molecule, the mortality at 100 ppm in [8] (24 h) is 80 to 100%; in data set [9] it was less than 50%. The molecule further showed a KT₅₀ in data set [4] of 6.8 min. The KT₉₀ in data set [4] came to 9.8 min. In addition, the mortality at 250 ppm in [10] (setting [11]) stood at 100%. The pest or weed control at 250 ppm in data set [10] (setting [14]) stood at 100%.
For the molecule `CC=NNc1c(F)c(F)c(COC(=O)C2C(C=C(Cl)C(F)(F)F)C2(C)C)c(F)c1F` (stereo not drawn) [Product XIV, E/Z-4-(ethylidenehydrazino)-2,3,5,6-tetrafluorobenzyl (1RS, cis)-3-(Z-2-chloro-3,3,3-trifluoroprop-1-en-1-yl)-2,2-dimethylcyclopropanecarboxylate], the mortality at 500 ppm is 80 to 100% in [1] (72 h); 80 to 100% in data set [2]; less than 50% in [3] (Tetranychus urticae, 72 h, read-out: grading of mortality, Tua, 500 ppm, 3 days); 80 to 100% in data set [6] (72 h, 500 ppm, 3 days); 80 to 100% in data set [8] (24 h); 80 to 100% in [9]. In addition, the KT₅₀ in data set [4] was determined as 6.6 min. In [4], this molecule yielded a KT₉₀ of 9.4 min. Moreover, in data set [10] (setting [15]), the “% KNOCKDOWN OBSERVED 15 min” value is given as 100%. Further, the “% MORTALITY 48 hrs” value in [10] (250 ppm spray, insects held at 25°C and 65% relative humidity for 48 hours, tests 1 and 2 are repeats, 2880 min) is 50% and 90%.
In the case of `CC(C)=CC1C(C(=O)OCN2C(=O)C3=C(CCCC3)C2=O)C1(C)C` (centres unmarked) [Tetramethrin, reference compound], the KT₅₀ in data set [4] is 4.0** mins; in data set [10] (250 ppm spray, time taken to knockdown 50% of test insects, Tetramethrin: mean of 3 assessments) it was 1.7** mins. Also, the KT₉₀ is on record as 7.5** mins in data set [4] and 3.2** mins in data set [10] (250 ppm spray, time taken to knockdown 90% of test insects, Tetramethrin: mean of 3 assessments). Also, the mortality at 250 ppm in data set [10] (read-out: % MORTALITY 48 hrs, 250 ppm spray, insects held at 25°C and 65% relative humidity for 48 hours, tests 1 and 2 are repeats) is 50%. The pest or weed control at 250 ppm stood at 80% in [10] (setting [12]) and 100% in data set [10] (setting [14]).
